In data set [1] the target is Tyrosine-protein kinase JAK2 (Homo sapiens, UniProt O60674). Put plainly: Inhibition of recombinant human JAK2 (808 to end residues) KTFCGTPEYLAPE as substrate measured after 40 mins in presence of [gamm33P]ATP by scintillation counting based radiometry assay.
Data set [2] addresses Non-receptor tyrosine-protein kinase TYK2 (Homo sapiens, UniProt P29597). Put plainly: Inhibition of recombinant human TYK2 (875 to end residues) using GGMEDIYFEFMGG as substrate incubated for 40 mins in presence of [gamma33P]ATP by scintillation counting based radiometry assay.
Data set [3] concerns the target T1, Tyrosine-protein kinase JAK3 (Homo sapiens, UniProt P52333).
T1 sequence (P52333 whole entry): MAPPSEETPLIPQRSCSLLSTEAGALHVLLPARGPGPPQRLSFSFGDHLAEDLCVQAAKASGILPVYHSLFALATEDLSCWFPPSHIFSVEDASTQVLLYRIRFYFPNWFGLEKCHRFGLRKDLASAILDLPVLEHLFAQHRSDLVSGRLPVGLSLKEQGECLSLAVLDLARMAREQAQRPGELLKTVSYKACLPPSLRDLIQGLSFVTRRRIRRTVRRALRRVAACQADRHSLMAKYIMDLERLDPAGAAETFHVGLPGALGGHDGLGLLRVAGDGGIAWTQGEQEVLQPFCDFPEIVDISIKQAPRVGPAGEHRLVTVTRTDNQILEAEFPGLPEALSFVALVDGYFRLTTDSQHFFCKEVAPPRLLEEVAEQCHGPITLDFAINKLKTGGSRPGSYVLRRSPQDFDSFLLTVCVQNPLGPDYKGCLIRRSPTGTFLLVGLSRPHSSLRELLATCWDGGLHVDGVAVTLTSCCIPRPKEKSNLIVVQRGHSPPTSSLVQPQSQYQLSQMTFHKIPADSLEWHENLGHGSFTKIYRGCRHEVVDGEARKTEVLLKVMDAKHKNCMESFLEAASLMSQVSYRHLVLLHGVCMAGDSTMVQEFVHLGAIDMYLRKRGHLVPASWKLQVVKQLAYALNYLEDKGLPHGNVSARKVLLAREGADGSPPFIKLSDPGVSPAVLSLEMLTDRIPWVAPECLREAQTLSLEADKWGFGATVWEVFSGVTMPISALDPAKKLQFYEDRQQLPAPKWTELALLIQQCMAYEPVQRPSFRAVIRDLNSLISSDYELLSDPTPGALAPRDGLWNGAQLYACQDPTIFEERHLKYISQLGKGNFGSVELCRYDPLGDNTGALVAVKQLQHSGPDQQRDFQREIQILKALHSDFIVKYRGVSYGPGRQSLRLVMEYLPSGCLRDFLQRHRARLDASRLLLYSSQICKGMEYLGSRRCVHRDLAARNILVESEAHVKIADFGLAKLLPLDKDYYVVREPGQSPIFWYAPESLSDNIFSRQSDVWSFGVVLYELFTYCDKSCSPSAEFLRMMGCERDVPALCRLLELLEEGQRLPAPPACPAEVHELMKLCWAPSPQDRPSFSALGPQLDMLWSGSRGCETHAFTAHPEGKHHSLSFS
Put plainly: Inhibition of recombinant human JAK3 (781 to end residues) using GGEEEEYFELVKKKK as substrate measured after 40 mins in presence of [gamma33P]ATP by scintillation counting based radiometry assay.

Data set [4] is described as follows: Metabolic stability in cryopreserved human liver microsomes assessed as half life. Format: ADME, Microsome. (In general: Liver microsomes are vesicles of endoplasmic reticulum, rich in cytochrome P450 enzymes.)
Data set [5] concerns the target Tyrosine-protein kinase JAK1 (Homo sapiens, UniProt P23458). Put plainly: Inhibition of human JAK1 (866 to end residues) using GEEPLYWSFPAKKK as substrate after 40 mins in presence of [gamma33P]ATP by scintillation counting based radiometry assay.
The species named for the next data set is Homo sapiens. Put plainly: Selectivity index, ratio of IC50 for inhibition of recombinant human JAK2 (808 to end residues) to IC50 for inhibition of recombinant human TYK2 (875 to end residues).

Each structure is given as a SMILES string.

Tyrosine-protein kinase JAK2, sequence (O60674 whole entry): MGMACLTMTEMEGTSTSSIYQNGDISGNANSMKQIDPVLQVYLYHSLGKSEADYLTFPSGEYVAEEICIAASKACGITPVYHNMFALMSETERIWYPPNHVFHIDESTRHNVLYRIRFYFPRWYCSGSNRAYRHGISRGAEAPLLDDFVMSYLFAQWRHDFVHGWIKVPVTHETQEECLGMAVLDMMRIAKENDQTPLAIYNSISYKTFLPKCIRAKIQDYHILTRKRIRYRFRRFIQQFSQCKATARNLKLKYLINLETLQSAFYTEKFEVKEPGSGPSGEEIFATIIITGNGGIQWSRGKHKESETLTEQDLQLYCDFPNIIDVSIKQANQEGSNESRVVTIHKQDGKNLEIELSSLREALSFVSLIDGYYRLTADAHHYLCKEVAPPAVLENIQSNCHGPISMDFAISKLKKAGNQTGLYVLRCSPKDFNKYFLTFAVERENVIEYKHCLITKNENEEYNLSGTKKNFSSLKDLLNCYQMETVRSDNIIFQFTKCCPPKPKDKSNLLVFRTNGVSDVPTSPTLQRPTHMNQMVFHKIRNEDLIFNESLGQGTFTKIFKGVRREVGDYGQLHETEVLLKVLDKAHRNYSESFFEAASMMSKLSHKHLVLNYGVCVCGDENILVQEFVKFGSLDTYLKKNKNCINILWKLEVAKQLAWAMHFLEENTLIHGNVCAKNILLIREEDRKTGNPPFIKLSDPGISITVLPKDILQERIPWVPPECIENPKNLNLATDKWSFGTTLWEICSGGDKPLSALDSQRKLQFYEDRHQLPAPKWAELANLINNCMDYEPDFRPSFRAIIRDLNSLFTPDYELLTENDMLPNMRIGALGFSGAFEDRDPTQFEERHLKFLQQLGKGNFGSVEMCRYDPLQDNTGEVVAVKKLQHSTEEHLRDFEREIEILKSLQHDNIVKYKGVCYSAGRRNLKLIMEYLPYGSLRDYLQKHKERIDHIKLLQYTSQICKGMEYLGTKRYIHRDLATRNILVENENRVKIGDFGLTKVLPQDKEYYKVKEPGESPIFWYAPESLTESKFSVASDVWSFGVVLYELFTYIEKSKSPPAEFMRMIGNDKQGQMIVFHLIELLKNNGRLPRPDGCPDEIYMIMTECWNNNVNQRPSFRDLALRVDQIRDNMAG
Tyrosine-protein kinase JAK1, sequence (P23458 whole entry): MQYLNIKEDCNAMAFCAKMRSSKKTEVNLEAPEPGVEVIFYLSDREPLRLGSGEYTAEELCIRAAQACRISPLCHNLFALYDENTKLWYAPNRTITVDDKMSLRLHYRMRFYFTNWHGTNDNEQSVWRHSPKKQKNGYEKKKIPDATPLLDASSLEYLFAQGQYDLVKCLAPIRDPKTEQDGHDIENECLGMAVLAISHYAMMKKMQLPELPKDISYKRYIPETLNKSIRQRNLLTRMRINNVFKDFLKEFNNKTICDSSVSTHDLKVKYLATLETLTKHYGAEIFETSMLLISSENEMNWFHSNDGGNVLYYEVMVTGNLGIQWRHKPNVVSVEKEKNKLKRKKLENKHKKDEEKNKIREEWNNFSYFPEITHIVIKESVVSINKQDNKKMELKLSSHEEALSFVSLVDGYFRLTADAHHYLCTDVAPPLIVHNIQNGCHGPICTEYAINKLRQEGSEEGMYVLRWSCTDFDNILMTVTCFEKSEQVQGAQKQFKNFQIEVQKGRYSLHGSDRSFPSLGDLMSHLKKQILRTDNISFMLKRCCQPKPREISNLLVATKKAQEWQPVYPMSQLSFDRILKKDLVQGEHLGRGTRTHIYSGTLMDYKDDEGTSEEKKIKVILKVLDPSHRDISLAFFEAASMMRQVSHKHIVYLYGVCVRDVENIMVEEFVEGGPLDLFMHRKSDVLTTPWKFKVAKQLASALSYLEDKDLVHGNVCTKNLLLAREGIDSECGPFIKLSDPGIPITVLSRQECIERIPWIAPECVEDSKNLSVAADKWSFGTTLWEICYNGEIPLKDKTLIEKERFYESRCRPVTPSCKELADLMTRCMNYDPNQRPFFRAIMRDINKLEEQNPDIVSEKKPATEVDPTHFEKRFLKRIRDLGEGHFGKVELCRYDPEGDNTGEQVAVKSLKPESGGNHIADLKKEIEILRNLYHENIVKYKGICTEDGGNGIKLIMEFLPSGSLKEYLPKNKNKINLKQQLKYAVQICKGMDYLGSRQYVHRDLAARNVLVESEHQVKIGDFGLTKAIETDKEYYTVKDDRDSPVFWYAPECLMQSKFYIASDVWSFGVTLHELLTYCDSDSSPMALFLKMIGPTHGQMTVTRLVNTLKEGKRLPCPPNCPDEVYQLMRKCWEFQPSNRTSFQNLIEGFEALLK
Non-receptor tyrosine-protein kinase TYK2, sequence (P29597 whole entry): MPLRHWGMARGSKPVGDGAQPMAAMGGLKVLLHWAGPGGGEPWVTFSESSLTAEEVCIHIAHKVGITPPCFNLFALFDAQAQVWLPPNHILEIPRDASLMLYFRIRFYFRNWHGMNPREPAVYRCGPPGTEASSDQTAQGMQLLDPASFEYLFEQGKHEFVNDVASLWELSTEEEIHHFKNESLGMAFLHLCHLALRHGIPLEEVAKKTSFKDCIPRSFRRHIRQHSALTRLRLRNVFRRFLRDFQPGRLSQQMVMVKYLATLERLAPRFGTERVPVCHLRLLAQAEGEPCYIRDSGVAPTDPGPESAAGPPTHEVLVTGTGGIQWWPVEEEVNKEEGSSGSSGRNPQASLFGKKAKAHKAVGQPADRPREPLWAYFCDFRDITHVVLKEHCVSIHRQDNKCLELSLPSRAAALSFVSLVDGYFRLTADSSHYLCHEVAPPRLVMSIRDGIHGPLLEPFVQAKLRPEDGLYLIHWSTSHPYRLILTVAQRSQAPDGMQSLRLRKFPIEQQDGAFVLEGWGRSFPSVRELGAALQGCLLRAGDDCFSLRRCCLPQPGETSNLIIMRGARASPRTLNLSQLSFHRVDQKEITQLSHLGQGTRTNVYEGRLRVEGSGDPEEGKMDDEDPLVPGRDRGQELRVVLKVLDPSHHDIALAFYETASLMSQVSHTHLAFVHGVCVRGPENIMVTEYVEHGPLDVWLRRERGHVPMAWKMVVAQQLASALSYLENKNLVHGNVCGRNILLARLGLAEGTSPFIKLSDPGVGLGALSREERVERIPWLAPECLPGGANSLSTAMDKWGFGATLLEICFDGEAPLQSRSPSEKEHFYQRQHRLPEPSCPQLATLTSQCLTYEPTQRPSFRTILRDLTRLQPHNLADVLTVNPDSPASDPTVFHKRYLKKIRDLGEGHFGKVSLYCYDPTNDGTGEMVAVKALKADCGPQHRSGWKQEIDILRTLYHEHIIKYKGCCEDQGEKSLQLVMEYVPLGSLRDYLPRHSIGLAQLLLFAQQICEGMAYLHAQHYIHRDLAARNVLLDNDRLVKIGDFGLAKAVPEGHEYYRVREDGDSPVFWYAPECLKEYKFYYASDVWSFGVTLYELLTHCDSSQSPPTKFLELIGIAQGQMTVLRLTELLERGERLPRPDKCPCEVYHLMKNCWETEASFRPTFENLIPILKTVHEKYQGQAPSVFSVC

For orientation: IC50 means the point on the concentration scale where inhibition reaches its midpoint. One may read the half-life as how long it takes for the measured level to halve. Consider `N#CCCn1cc(-c2nc(Nc3ccc4c(c3)CCN4S(=O)(=O)C(F)(F)F)ncc2F)cn1`, for which the half-maximal inhibitory concentration (IC50) in data set [1] was 196 nM; in data set [2], 4 nM; in data set [3], greater than 1000 nM; in data set [5], 912 nM. Besides, the half-life in data set [4] is 9.8 min.

With `N#CCCn1cc(-c2nc(Nc3ccc4c(ccn4S(=O)(=O)c4ccc(C(F)(F)F)cc4)c3)ncc2F)cn1`, the half-life in data set [4] turned out to be 38.1 min.

On to `N#CCCn1cc(-c2nc(Nc3ccc4c(c3)CNC4=O)ncc2F)cn1`, for which the IC50 turned out to be 58 nM in data set [1] and 7 nM in data set [2]. Also, the half-life in data set [4] came out at 56.8 min.

As to `Cc1cnc(Nc2ccc(N3CCC(N(C)CCO)CC3)c(F)c2)nc1-c1cnn(C(C)C)c1`, in data set [2], the IC50 turned out to be 2 nM.

Take `CCS(=O)(=O)N1CCc2cc(Nc3ncc(C)c(-c4cnn(C(C)C)c4)n3)ccc21`: the half-maximal inhibitory concentration (IC50) in data set [1] was found to be 2.72 nM; in data set [2], 1.61 nM. In the data set filed under Homo sapiens, the Selectivity Index turned out to be 1.69.

For the compound `N#CCCn1cc(-c2nc(Nc3ccc4c(ccn4C(=O)C4CC4)c3)ncc2F)cn1`, the IC50 in data set [1] is 299 nM; in data set [2], 151 nM. For the same compound, in data set [4], the half-life was 69.3 min.

Consider `N#CCCn1cc(-c2nc(Nc3ccc4c(c3)CCN4)ncc2F)cn1`, for which the 50% inhibitory concentration (IC50) in data set [1] came to 292 nM; in data set [2] it was 2 nM. For the same compound, in data set [4], the half-life came to 3.2 min.

For the compound `Cc1cnc(Nc2ccc3c(c2)CCN3C(=O)[C@H]2CCCN2C(=O)C2(C#N)CC2)nc1-c1cnn(C(C)C)c1`, the IC50 in data set [1] came to 3.8 nM; in data set [2], 2.05 nM. Also, in the data set filed under Homo sapiens, the Selectivity Index came out at 1.85.

As for `Cc1cnc(Nc2ccc3c(c2)CCN3S(=O)(=O)c2ccc3c(c2)CC(=O)N3)nc1-c1cnn(C(C)C)c1`, the figures for the IC50 in data set [1] and in data set [2] were 25 nM and 12.3 nM, respectively. The Selectivity Index in the data set listed under Homo sapiens is 2.03.

As to `Cc1cnc(Nc2ccc3c(c2)CCN3S(=O)(=O)C2CC2)nc1-c1cnn(C(C)C)c1`, the IC50 came out at 2.38 nM in data set [1] and 2.69 nM in data set [2]. Also, the Selectivity Index in the data set filed under Homo sapiens is less than 1.

Regarding `Cc1cnc(Nc2ccc3c(c2)CCN3C(=O)C2CC2)nc1-c1cnn(C(C)C)c1`, the values for the IC50 in data set [1] and in data set [2] were 3.86 nM and 3.76 nM, respectively. The Selectivity Index in the data set filed under Homo sapiens was determined as 1.03.

For `Cc1cnc(Nc2ccc3c(c2)CCN3C(=O)c2ccc(C(F)(F)F)cc2F)nc1-c1cnn(C(C)C)c1`, the figures for the IC50 in data set [1] and in data set [2] were 25.1 nM and 10.6 nM, respectively. For the same compound, the Selectivity Index in the data set listed under Homo sapiens worked out at 2.36.

Take `Cc1cnc(Nc2ccc3c(c2)CCN3S(=O)(=O)c2ccc(C(F)(F)F)cc2)nc1-c1cnn(C2CCC2)c1`: the IC50 was 162 nM in data set [1], 12 nM in data set [2], greater than 1000 nM in data set [3] and 333 nM in data set [5]. For the same compound, the half-life in data set [4] was found to be 19.5 min.

As for `Cc1cnc(Nc2ccc3c(c2)CCN3S(=O)(=O)c2ccc(C(F)(F)F)cc2)nc1-c1cnn(CCC#N)c1`, the IC50 in data set [1] is 21 nM; in data set [2], 2 nM; in data set [3], greater than 1000 nM; in data set [5], 84 nM. Also, the half-life in data set [4] came to 22 min.

`Cc1cnc(Nc2ccc3c(c2)CCN3C(=O)CCN2CCOCC2)nc1-c1cnn(C(C)C)c1`: the IC50 came out at 12 nM in data set [1] and 9.64 nM in data set [2]. Besides, in the data set filed under Homo sapiens, the Selectivity Index was found to be 1.24.

Regarding `N#CCCn1cc(-c2nc(Nc3ccc4c(c3)CCN4C(=O)CN3CCS(=O)(=O)CC3)ncc2F)cn1`, the IC50 stood at 2 nM in data set [2], 244 nM in data set [3] and 125 nM in data set [5]. In data set [4], the half-life is greater than 120 min.

With `Cc1cnc(Nc2ccc3c(c2)CCN3C(=O)Cc2ccc(OC(F)(F)F)cc2)nc1-c1cnn(C(C)C)c1`, the IC50 in data set [1] stood at 398 nM; in data set [2], 51.1 nM. For the same compound, the Selectivity Index in the data set filed under Homo sapiens is 7.8.

For `CCCn1cc(-c2nc(Nc3ccc4c(c3)CCN4S(=O)(=O)c3ccc(C(F)(F)F)cc3)ncc2C)cn1`, in data set [2], the IC50 turned out to be 23 nM. In addition, the half-life in data set [4] was 2.38 min.

For `N#CCCn1cc(-c2nc(Nc3ccc4c(c3)CCN4C(=O)c3ccc(C(F)(F)F)cc3)ncc2F)cn1`, the IC50 stood at 153 nM in data set [1] and 5 nM in data set [2]. The half-life in data set [4] turned out to be 17.2 min.

As to `Cc1cnc(Nc2ccc3c(c2)CCN3C(=O)CN2CCS(=O)(=O)CC2)nc1-c1cnn(C(C)C)c1`, the half-maximal inhibitory concentration (IC50) in data set [1] is 3 nM; in data set [2] it was 1.99 nM. Besides, the Selectivity Index in the data set listed under Homo sapiens was 1.51.

As for `COc1ccc(S(=O)(=O)N2CCc3cc(Nc4ncc(C)c(-c5cnn(C(C)C)c5)n4)ccc32)cc1`, the results for the IC50 in data set [1] and in data set [2] were 24.1 nM and 7.82 nM, respectively. Moreover, the Selectivity Index in the data set filed under Homo sapiens is 3.08.

Consider `Cn1ccc2cc(Nc3ncc(F)c(-c4cnn(CCC#N)c4)n3)ccc21`, for which the IC50 was determined as 114 nM in data set [1] and 18 nM in data set [2]. Moreover, the half-life in data set [4] was found to be 7.62 min.

`N#CCCn1cc(-c2nc(Nc3ccc4c(c3)CCN4S(=O)(=O)c3ccc(C(F)(F)F)cc3)ncc2F)cn1`: the half-maximal inhibitory concentration (IC50) in data set [2] came to 9 nM. Moreover, in data set [4], the half-life turned out to be 9.2 min.

As for `Cc1cnc(Nc2ccc3c(c2)CCN3S(=O)(=O)c2ccc3c(c2)CC(=O)N3C)nc1-c1cnn(C(C)C)c1`, the IC50 in data set [1] came out at 12.6 nM; in data set [2] it was 63 nM. Also, the Selectivity Index in the data set listed under Homo sapiens was less than 1.

Turning to `Cc1cnc(Nc2ccc3c(c2)CCN3C(=O)[C@@H](O)CO)nc1-c1cnn(C(C)C)c1`, the IC50 is 21.2 nM in data set [1] and 10.8 nM in data set [2]. Also, the Selectivity Index in the data set listed under Homo sapiens was found to be 1.95.

As for `Cc1cnc(Nc2ccc3c(c2)CCN3C(=O)[C@@H]2C[C@@H]2F)nc1-c1cnn(C(C)C)c1`, the IC50 in data set [1] amounted to 10.4 nM; in data set [2] it was 6.28 nM. In addition, the Selectivity Index in the data set listed under Homo sapiens is 1.65.

In the case of `N#CCCn1cc(-c2nc(Nc3ccc4c(c3)CCN4C(=O)C3(C#N)CC3)ncc2F)cn1`, the IC50 in data set [1] was 28 nM; in data set [2] it was 6 nM; in data set [3], 191 nM; in data set [5] it was 259 nM. In addition, in data set [4], the half-life worked out at 31.8 min.

With `Cc1cnc(Nc2ccc3c(c2)CNC3=O)nc1-c1cnn(CCC#N)c1`, the results for the half-inhibitory concentration (IC50) in data set [1] and in data set [2] were 1.1 nM and 0.67 nM, respectively. The half-life in data set [4] amounted to 7.79 min.

Regarding `CCCS(=O)(=O)N1CCc2cc(Nc3ncc(C)c(-c4cnn(C(C)C)c4)n3)ccc21`, the IC50 was determined as 2.29 nM in data set [1] and 3.84 nM in data set [2]. Further, in the data set listed under Homo sapiens, the Selectivity Index was less than 1.

`CC(C)(C)c1ccc(C(=O)N2CCc3cc(Nc4ncc(F)c(-c5cnn(CCC#N)c5)n4)ccc32)cc1`: the IC50 in data set [1] was 601 nM; in data set [2], 40 nM.

Consider `Cc1cnc(Nc2ccc3c(c2)CCN3S(=O)(=O)c2ccc(C(F)(F)F)cc2)nc1-c1cnn(C2CC2)c1`, for which the IC50 in data set [2] is 60 nM. The half-life in data set [4] amounted to 4.13 min.

Turning to `CC(=O)N1CCc2cc(Nc3ncc(C)c(-c4cnn(C(C)C)c4)n3)ccc21`, the IC50 stood at 6 nM in data set [1] and 1.81 nM in data set [2]. The Selectivity Index in the data set filed under Homo sapiens was found to be 3.31.

Consider `Cc1cnc(Nc2ccc3c(c2)CCN3C(=O)c2cccc(C(F)(F)F)c2)nc1-c1cnn(C(C)C)c1`, for which the IC50 in data set [1] was determined as 65.3 nM; in data set [2], 14.6 nM. The Selectivity Index in the data set listed under Homo sapiens worked out at 4.49.

Turning to `Cc1cnc(Nc2ccc3c(c2)CCN3C(=O)[C@H]2CCCN2)nc1-c1cnn(C(C)C)c1`, the IC50 in data set [1] was found to be 3 nM; in data set [2], 5 nM. Also, in the data set filed under Homo sapiens, the Selectivity Index is less than 1.

As for `Cc1cnc(Nc2ccc(NS(=O)(=O)c3ccc(C(F)(F)F)cc3)c(F)c2)nc1-c1cnn(C(C)C)c1`, the IC50 stood at 25 nM in data set [1], 13 nM in data set [2], 688 nM in data set [3] and 41 nM in data set [5].

In the case of `Cc1cnc(Nc2ccc3c(c2)CCN3C(=O)C2CC2(F)F)nc1-c1cnn(C(C)C)c1` (stereo not given), the figures for the IC50 in data set [1] and in data set [2] were 6.65 nM and 5.72 nM, respectively. The Selectivity Index in the data set listed under Homo sapiens turned out to be 1.16.

For the origin of these results see ChEMBL document CHEMBL4825658, “Discovery of 3-(4-(2-((1H-Indol-5-yl)amino)-5-fluoropyrimidin-4-yl)-1H-pyrazol-1-yl)propanenitrile Derivatives as Selective TYK2 Inhibitors for the Treatment of Inflammatory Bowel Disease” (J Med Chem, 2021).
